The text below walks through data of US4340598A, “Hypotensive imidazole derivatives” (Takeda Chemical Industries, Ltd., priority 1979, dated 1982).

Molecules are shown by their SMILES. Where a name gives a salt, the structure may show the parent alone.

The test system of one experiment is Angiotensin II (aortic blood vessel of a rabbit). Nature of the experiment: Angiotensin II antagonistic effect, inhibition of A II-induced isometric tension change of isolated rabbit aortic blood vessel. The format is cell-based. The settings on record: Oryctolagus cuniculus, 0.25 h; Concn. of drug substance 10^-5 M; A II 4×10^-9 M; 15 minutes treatment; read-out: Potency of inhibition. As to the method: Angiotensin II (hereinafter referred to briefly as A II) antagonistic effect of the compound (I) of the present invention (aortic blood vessel of a rabbit). The blood-vessel preparation and reaction were done in accordance with the method as described in "European Journal of Pharmacology", vol. 18, pp. 316 (1972). While employing A II in the concentration of 4×10^-9M, the potency of inhibition was calculated by the following equation from changes in isometric tension of the blood vessel brought about by A II and that found after treatment with a test drug substance for 15 minutes, respectively. [formula] where; T1 =Change in isometric tension of the blood vessel brought about by A II without treatment with a test drug substance (g) T2 =Change in tension found after treatment with a test drug substance (g)
Regarding `O=C(O)Cc1nc(-c2ccccc2)n(Cc2ccccc2)c1Cl`, the inhibition at 10 µM stood at 10%.
On to `O=C(O)c1c(Cl)nc(-c2ccccc2)n1Cc1ccccc1`, for which the inhibition at 10 µM is 5%.
Same read-out and setting: next, `O=C(O)CCc1c(Cl)nc(-c2ccccc2)n1Cc1ccccc1`: 13%.
With `COC(=O)Cc1cnc(-c2ccccc2)n1Cc1ccc([N+](=O)[O-])cc1`, the inhibition at 10 µM is 38%.
`NC(=O)Cc1c(Cl)nc(-c2ccccc2)n1Cc1ccccc1`: the inhibition at 10 µM came out at 20%.
`CN(C)c1ccc(-c2nc(Cl)c(CC(N)=O)n2Cc2ccccc2)cc1`: the inhibition at 10 µM is 10%.
The same measure, in the same setting: next, `CN(C)c1ccc(-c2nc(Cl)c(C(N)=O)n2Cc2ccccc2)cc1`: 18%.
Still for that read-out and setting: to `Cc1ccc(-c2ncc(CC(=O)O)n2Cc2ccccc2)cc1` belongs 5%; to `COc1ccc(-c2ncc(CC(=O)O)n2Cc2ccccc2)cc1`, 5%; to `CCCCn1c(-c2ccccc2)nc(Cl)c1CC(=O)O` [1-n-butyl-4-chloro-2-phenylimidazole-5-acetic acid], 25%.
For the molecule `O=C(O)Cc1c(Cl)nc(-c2ccccc2)n1CCc1ccccc1` [4-chloro-2-phenyl-1-phenethylimidazole-5-acetic acid hydrochloride], the inhibition at 10 µM amounted to 12%.

The same experiment, now with this note: Oryctolagus cuniculus, 0.25 h; Concn. of drug substance 10^-6 M; A II 4×10^-9 M; 15 minutes treatment; read-out: Potency of inhibition.
In the case of `CCCCc1nc(CC(=O)O)c(Cl)n1Cc1ccccc1`, the inhibition at 1 µM amounted to 22%.
Still for that read-out and setting: next, `O=C(O)Cc1nc(C2CCCC2)n(Cc2ccccc2)c1Cl`: 10%; `CCCCc1nc(CC(=O)O)c(Cl)n1Cc1ccccc1Cl`: 30%.
On the same count and under the same terms, to `CCCCc1nc(Cl)c(CC(N)=O)n1Cc1ccccc1` [1-Benzyl-2-butyl-4-chloroimidazole-5-acetamide] belongs 19%.
